# In ChEMBL document CHEMBL4020850, “Discovery of LSZ102, a Potent, Orally Bioavailable Selective Estrogen Receptor Degrader (SERD) for the Treatment of Estrogen Receptor Positive Breast Cancer” (J Med Chem, 2018):
# pIC50: −log10 of the molar value.
# Legend:
# [1] = Equilibrium solubility in pH 6.8 buffer at 1 mM after 16 hrs by HPLC based shake flask method; assay type: physicochemical
# Estrogen receptor = target: T1, Estrogen receptor (Homo sapiens, UniProt P03372); experiment: Induction of selective estrogen receptor alpha degradation in human MCF7 cells harboring TK-ERE-Luc assessed as reduction in estradiol-induced transcriptional activity after 24 hrs by luciferase reporter gene assay; assay type: cell-based
# T1 sequence (P03372 whole entry): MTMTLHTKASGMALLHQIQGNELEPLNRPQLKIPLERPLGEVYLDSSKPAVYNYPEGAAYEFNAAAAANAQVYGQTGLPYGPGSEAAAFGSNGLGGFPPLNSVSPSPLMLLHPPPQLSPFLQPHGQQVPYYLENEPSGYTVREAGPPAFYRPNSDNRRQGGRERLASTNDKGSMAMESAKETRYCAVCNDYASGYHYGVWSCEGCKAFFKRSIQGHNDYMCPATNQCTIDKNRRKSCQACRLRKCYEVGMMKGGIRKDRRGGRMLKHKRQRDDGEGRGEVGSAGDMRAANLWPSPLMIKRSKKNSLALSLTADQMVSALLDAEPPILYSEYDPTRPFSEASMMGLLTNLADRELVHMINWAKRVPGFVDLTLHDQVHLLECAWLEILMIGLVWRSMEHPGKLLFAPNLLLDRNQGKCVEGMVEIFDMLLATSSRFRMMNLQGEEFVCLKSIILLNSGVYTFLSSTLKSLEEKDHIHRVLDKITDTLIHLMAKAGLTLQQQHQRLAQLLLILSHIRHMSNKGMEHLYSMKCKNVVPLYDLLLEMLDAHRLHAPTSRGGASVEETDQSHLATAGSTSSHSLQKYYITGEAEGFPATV
# MCF7 = experiment: Antiproliferative activity against human MCF7 cells after 6 days in presence of estradiol by CellTiter-Glo assay; conditions: MCF7, 144 h
# [2] = Clearance in Sprague-Dawley rat at 1 mg/kg, iv or 3 mg/kg, po; assay type: ADME, organism-based; conditions: in vivo
# [3] = Cmax in Sprague-Dawley rat at 3 mg/kg, po; assay type: ADME, organism-based; design: dose 3 mg/kg, route oral; conditions: in vivo
# [4] = Oral bioavailability in Sprague-Dawley rat at 3 mg/kg; assay type: ADME, organism-based; conditions: in vivo
# [5] = Clearance in C57BL/6 mouse at 1 mg/kg, iv or 3 mg/kg, po; assay type: ADME, organism-based; conditions: in vivo
# [6] = Cmax in C57BL/6 mouse at 3 mg/kg, po; assay type: ADME, organism-based; design: dose 3 mg/kg, route oral; conditions: in vivo
# [7] = Oral bioavailability in C57BL/6 mouse at 3 mg/kg; assay type: ADME, organism-based; conditions: in vivo
smiles,measurement,setting,value
CNC(=O)/C=C/c1ccc(Oc2c(-c3ccc(O)cc3)sc3cc(O)ccc23)cc1,"solubility thermodynamic at 16 h, 1000 µM",[1],< 5 µM
O=C(O)/C=C/c1ccc(Nc2c(-c3ccc(O)cc3)sc3cc(O)ccc23)cc1,pIC50,Estrogen receptor,< 5.00
CC/C(=C(\c1ccc(O)cc1)c1ccc(OCCN(C)C)cc1)c1ccccc1 [AFIMOXIFENE],pIC50,MCF7,8.00
Cn1cnc(/C=C/c2ccc(Oc3c(-c4ccc(O)cc4)sc4cc(O)ccc34)cc2)c1,"solubility thermodynamic at 16 h, 1000 µM",[1],9 µM
O=C(O)/C=C/c1ccc(Oc2c(-c3ccc(O)cc3)sc3cc(O)ccc23)cc1,"solubility thermodynamic at 16 h, 1000 µM",[1],340 µM
same,clearance,[2],54 mL/min/kg
same,Cmax,[3],80 nM
same,bioavailability,[4],6%
O=C(/C=C/c1ccc(Oc2c(-c3ccc(O)cc3)sc3cc(O)ccc23)cc1)NCCO,"solubility thermodynamic at 16 h, 1000 µM",[1],11 µM
O=C(O)/C=C/c1ccc(Oc2c(-c3ccc(F)cc3)sc3cc(O)ccc23)cc1,clearance,[5],22 mL/min/kg
same,pIC50,Estrogen receptor,5.74
same,clearance,[2],24 mL/min/kg
same,Cmax,[3],847 nM
same,bioavailability,[4],33%
same,Cmax,[6],505 nM
same,bioavailability,[7],19%
Cc1cc(F)ccc1-c1sc2cc(O)ccc2c1Oc1ccc(/C=C/C(=O)O)cc1,clearance,[5],33 mL/min/kg
same,Cmax,[6],925 nM
same,bioavailability,[7],34%
O=C(/C=C/c1ccc(Oc2c(-c3ccc(O)cc3)sc3cc(O)ccc23)cc1)NCCC(F)(F)F,"solubility thermodynamic at 16 h, 1000 µM",[1],< 5 µM
NC(=O)/C=C/c1ccc(Oc2c(-c3ccc(O)cc3)sc3cc(O)ccc23)cc1,"solubility thermodynamic at 16 h, 1000 µM",[1],< 5 µM
Oc1ccc(-c2sc3cc(O)ccc3c2Oc2ccc(/C=C/c3nnn[nH]3)cc2)cc1,pIC50,Estrogen receptor,6.66
same,"solubility thermodynamic at 16 h, 1000 µM",[1],190 µM
CC/C(=C(/c1ccc(/C=C/C(=O)O)cc1)c1ccc2[nH]ncc2c1)c1ccc(F)cc1Cl [BRILANESTRANT],clearance,[5],16 mL/min/kg
same,Cmax,[6],1240 nM
same,bioavailability,[7],42%
